Assay results taken from US6921770B2 (priority 2000, dated 2005).
Like-named read-outs stand apart in the source and are kept apart here.

Assays:
[1] = test system: Pyricularia grisea; assay type: in vivo
[2] = test system: rice blast fungi; assay type: in vivo, Pyricularia grisea

Compound: 2-(3-trifluoromethoxyphenylimino)-3-methyl-4-[N-methoxyphenyl)carbamoylmethyl]-1,3-thiazol-4-ine [Compound 339]
- controlling effect on rice blast ([1]; 2 ppm): 80%
- controlling effect on rice blast ([1]; 10 ppm): 95%
- controlling effect on rice blast ([1]; 100 ppm): 96%
- Inhibiting Ratio (%) (at 250 ppm) [2]: 98%

Compound: Br.Cn1c(CC(=O)Nc2ccccc2)csc1=Nc1ccc(F)cc1F [Compound 27, 2-(2,4-difluorophenylimino)-3-methyl-4-(N-phenylcarbamoylmethyl)-1,3-thiazol-4-ine hydrobromide]
- controlling effect on rice blast ([1]; 2 ppm): 80%
- controlling effect on rice blast ([1]; 10 ppm): 91%
- controlling effect on rice blast ([1]; 100 ppm): 98%
- Inhibiting Ratio (%) (at 250 ppm) [2]: 98%

Compound: Br.Cc1ccc(NC(=O)Cc2csc(=Nc3ccc(F)cc3F)n2C)cc1 [Compound 31, 2-(2,4-difluorophenylimino)-3-methyl-4-[N-(4-methylphenyl)carbamoylmethyl]-1,3-thiazol-4-ine hydrobromide]
- controlling effect on rice blast ([1]; 2 ppm): 80%
- controlling effect on rice blast ([1]; 10 ppm): 91%
- controlling effect on rice blast ([1]; 100 ppm): 100%
- Inhibiting Ratio (%) (at 250 ppm) [2]: 100%

Compound: Cl.Cn1c(CC(=O)Nc2ccc(Cl)cc2)csc1=Nc1ccc(C#N)cc1 [Compound 128, 2-(4-cyanophenylimino)-3-methyl-4-[N-(4-chlorophenyl)carbamoylmethyl]-1,3-thiazol-4-ine hydrochloride]
- controlling effect on rice blast ([1]; 2 ppm): 85%
- controlling effect on rice blast ([1]; 10 ppm): 100%
- controlling effect on rice blast ([1]; 100 ppm): 100%
- Inhibiting Ratio (%) (at 250 ppm) [2]: 98%

Compound: Br.COc1ccc(NC(=O)Cc2csc(=Nc3ccccc3OC)n2C)cc1 [Compound 311, 2-(2-methoxyphenylimino)-3-methyl-4-[N-(4-methoxyphenyl)carbamoylmethyl]-1,3-thiazol-4-ine hydrobromide]
- Inhibiting Ratio (%) (at 250 ppm) [2]: 95%

Compound: Br.COc1ccc(NC(=O)Cc2csc(=Nc3ccccc3C)n2C)cc1 [Compound 312, 2-(2-methylphenylimino)-3-methyl-4-[N-(4-methoxyphenyl)carbamoylmethyl]-1,3-thiazol-4-ine hydrobromide]
- Inhibiting Ratio (%) (at 250 ppm) [2]: 25%

Compound: Br.COc1ccc(NC(=O)Cc2csc(=Nc3ccc(OC(C)C)cc3)n2C)cc1 [Compound 313, 2-(4-isopropoxyphenylimino)-3-methyl-4-[N-(4-methoxyphenyl)carbamoylmethyl]-1,3-thiazol-4-ine hydrobromide]
- Inhibiting Ratio (%) (at 250 ppm) [2]: 100%

Compound: Br.CC(C)Oc1ccc(N=c2scc(CC(=O)Nc3ccc(Cl)cc3)n2C)cc1 [Compound 314, 2-(4-isopropoxyphenylimino)-3-methyl-4-[N-(4-chlorophenyl)carbamoylmethyl]-1,3-thiazol-4-ine hydrobromide]
- Inhibiting Ratio (%) (at 250 ppm) [2]: 100%

Compound: Br.COc1ccc(NC(=O)Cc2csc(=Nc3ccc(F)cc3)n2C)cc1 [Compound 315, 2-(4-fluorophenylimino)-3-methyl-4-[N-(4-methoxyphenyl)carbamoylmethyl]-1,3-thiazol-4-ine hydrobromide]
- Inhibiting Ratio (%) (at 250 ppm) [2]: 97%

Compound: Br.Cn1c(CC(=O)Nc2ccc(Cl)cc2)csc1=Nc1ccc(F)cc1 [Compound 316, 2-(4-fluorophenylimino)-3-methyl-4-[N-(4-chlorophenyl)carbamoylmethyl]-1,3-thiazol-4-ine hydrobromide]
- Inhibiting Ratio (%) (at 250 ppm) [2]: 100%

Compound: Br.Cn1c(CC(=O)Nc2ccc(Cl)cc2)csc1=Nc1ccc(Br)cc1 [Compound 317, 2-(4-bromophenylimino)-3-methyl-4-[N-(4-chlorophenyl)carbamoylmethyl]-1,3-thiazol-4-ine hydrobromide]
- Inhibiting Ratio (%) (at 250 ppm) [2]: 100%

Compound: Br.COc1ccc(NC(=O)Cc2csc(=Nc3ccc(Br)cc3)n2C)cc1 [Compound 318, 2-(4-bromophenylimino)-3-methyl-4-[N-(4-methoxyphenyl)carbamoylmethyl]-1,3-thiazol-4-ine hydrobromide]
- Inhibiting Ratio (%) (at 250 ppm) [2]: 100%

Compound: Br.Cn1c(CC(=O)Nc2ccc(Cl)cc2)csc1=Nc1ccc(Oc2ccccc2)cc1 [Compound 319, 2-(4-phenoxyphenylimino)-3-methyl-4-[N-(4-chlorophenyl)carbamoylmethyl]-1,3-thiazol-4-ine hydrobromide]
- Inhibiting Ratio (%) (at 250 ppm) [2]: 100%

Compound: Br.COc1ccc(NC(=O)Cc2csc(=Nc3ccc(Oc4ccccc4)cc3)n2C)cc1 [Compound 320, 2-(4-phenoxyphenylimino)-3-methyl-4-[N-(4-methoxyphenyl)carbamoylmethyl]-1,3-thiazol-4-ine hydrobromide]
- Inhibiting Ratio (%) (at 250 ppm) [2]: 100%

Compound: Br.Cc1cc(C)c(N=c2scc(CC(=O)Nc3ccccc3)n2C)c(C)c1 [Compound 321, 2-(2,4,6-trimethylphenylimino)-3-methyl-4-N-phenylcarbamoyl methyl-1,3-thiazol-4-ine hydrobromide]
- Inhibiting Ratio (%) (at 250 ppm) [2]: 97%

Compound: Br.Cc1ccccc1NC(=O)Cc1csc(=Nc2ccc(C#N)cc2)n1C [Compound 324, 2-(4-cyanophenylimino)-3-methyl-4-[N-(2-methylphenyl)carbamoylmethyl]1,3-thiazol-4-ine hydrobromide]
- Inhibiting Ratio (%) (at 250 ppm) [2]: 90%

Compound: Br.Cn1c(CC(=O)Nc2ccccc2)csc1=Nc1ccc(Cl)c(Cl)c1 [Compound 325, 2-(3,4-dichlorophenylimino)-3-methyl-4-N-phenylcarbamoylmethyl-1,3-thiazol-4-ine hydrobromide]
- Inhibiting Ratio (%) (at 250 ppm) [2]: 97%

Compound: Br.COc1ccc(NC(=O)Cc2csc(=Nc3ccc(C(C)(C)C)cc3)n2C)cc1 [Compound 326, 2-(4-butyl(t-)phenylimino)-3-methyl-4-[N-(4-methoxyphenyl)carbamoylmethyl]-1,3-thiazol-4-ine hydrobromide]
- Inhibiting Ratio (%) (at 250 ppm) [2]: 97%

Compound: Br.COc1ccccc1NC(=O)Cc1csc(=Nc2ccc(C(C)(C)C)cc2)n1C [Compound 327, 2-(4-butyl(t-)phenylimino)-3-methyl-4-[N-(2-methoxyphenyl)carbamoylmethyl]-1,3-thiazol-4-ine hydrobromide]
- Inhibiting Ratio (%) (at 250 ppm) [2]: 62%

Compound: Br.COc1ccc(NC(=O)Cc2csc(=Nc3cccc(C)c3)n2C)cc1 [Compound 328, 2-(3-methylphenylimino)-3-methyl-4-[N-(4-methoxyphenyl)carbamoylmethyl]-1,3-thiazol-4-ine hydrobromide]
- Inhibiting Ratio (%) (at 250 ppm) [2]: 97%

Compound: Cn1c(CC(=O)Nc2ccc(Cl)cc2)csc1=Nc1ccc(C#N)cc1 [Compound 329, 2-(4-cyanophenylimino)-3-methyl-4-[N-(4-chlorophenyl)carbamoylmethyl]-1,3-thiazol-4-ine]
- Inhibiting Ratio (%) (at 250 ppm) [2]: 100%

Compound: COc1ccc(NC(=O)Cc2csc(=Nc3ccc(C#N)cc3)n2C)cc1 [Compound 330, 2-(4-cyanophenylimino)-3-methyl-4-[N-(4-methoxyphenyl)carbamoylmethyl]-1,3-thiazol-4-ine]
- Inhibiting Ratio (%) (at 250 ppm) [2]: 100%

Compound: Cn1c(CC(=O)Nc2ccccc2)csc1=Nc1ccc(F)cc1F [Compound 331, 2-(2,4-difluorophenylimino)-3-methyl-4-[N-phenylcarbamoylmethyl]-1,3-thiazol-4-ine]
- Inhibiting Ratio (%) (at 250 ppm) [2]: 96%

Compound: Cc1ccc(NC(=O)Cc2csc(=Nc3ccc(F)cc3F)n2C)cc1 [Compound 332, 2-(2,4-difluorophenylimino)-3-methyl-4-[N-(4-methylphenyl)carbamoylmethyl]-1,3-thiazol-4-ine]
- Inhibiting Ratio (%) (at 250 ppm) [2]: 100%

Compound: Cc1cccc(NC(=O)Cc2csc(=Nc3cc(OC(C)C)c(Cl)cc3F)n2C)c1 [Compound 333, 2-(2-fluoro-4-chloro-5-isopropoxyphenylimino)-3-methyl-4-[N-(3-methylphenyl)carbamoylmethyl]-1,3-thiazol-4-ine]
- Inhibiting Ratio (%) (at 250 ppm) [2]: 98%

Compound: CCCCc1ccc(N=c2scc(CC(=O)Nc3ccc(OC)cc3)n2C)cc1 [Compound 334, 2-[4-(n-butyl)phenylimino]-3-methyl-4-[N-(4-methoxyphenyl)carbamoylmethyl]-1,3-thiazol-4-ine]
- Inhibiting Ratio (%) (at 250 ppm) [2]: 96%

Compound: CCc1ccc(NC(=O)Cc2csc(=Nc3ccc(C#N)cc3)n2C)cc1.Cl [Compound 341, 2-(4-cyanophenylimino)-3-methyl-4-[N-(4-ethylphenyl)carbamoylmethyl]-1,3-thiazol-4-ine hydrochloride]
- controlling effect on rice blast ([1]; 2 ppm, hydrochloride): 96%
- controlling effect on rice blast ([1]; 10 ppm, hydrochloride): 98%
- controlling effect on rice blast ([1]; 100 ppm, hydrochloride): 93%

Compound: Cc1ccc(NC(=O)Cc2csc(=Nc3cc(OC(C)C)c(Cl)cc3F)n2C)cc1.Cl [Compound 342]
- controlling effect on rice blast ([1]; 2 ppm): 90%
- controlling effect on rice blast ([1]; 10 ppm): 98%
- controlling effect on rice blast ([1]; 100 ppm): 92%

Compound: COc1ccc(NC(=O)Cc2csc(=Nc3ccc(C(F)(F)F)cc3)n2C)cc1F.Cl [Compound 343, 2-(4-trifluoromethylphenylimino)-3-methyl-4-[N-(3-fluoro-4-methoxyphenyl)carbamoylmethyl]-1,3-thiazol-4-ine hydrochloride]
- controlling effect on rice blast ([1]; 2 ppm): 90%
- controlling effect on rice blast ([1]; 10 ppm): 94%
- controlling effect on rice blast ([1]; 100 ppm): 98%

Compound: COc1ccc(NC(=O)Cc2csc(=Nc3ccc(C#N)cc3)n2C)cc1F.Cl [Compound 344, 2-(4-cyanophenylimino)-3-methyl-4-[N-(3-fluoro-4-methoxyphenyl)carbamoylmethyl]-1,3-thiazol-4-ine hydrochloride]
- controlling effect on rice blast ([1]; 2 ppm): 83%
- controlling effect on rice blast ([1]; 10 ppm): 97%
- controlling effect on rice blast ([1]; 100 ppm): 98%

Compound: CCc1ccc(NC(=O)Cc2csc(=Nc3ccc(C#N)cc3)n2C)cc1.Cl [Compound 345, 2-(4-cyanophenylimino)-3-methyl-4-[N-(4-ethylphenyl)carbamoylmethyl]-1,3-thiazol-4-ine hydrochloride]
- controlling effect on rice blast ([1]; 2 ppm, hydrochloride): 70%
- controlling effect on rice blast ([1]; 10 ppm, hydrochloride): 94%
- controlling effect on rice blast ([1]; 100 ppm, hydrochloride): 97%

Compound: CCc1ccc(NC(=O)Cc2csc(=Nc3ccc(C(F)(F)F)cc3)n2C)cc1.Cl [Compound 346, 2-(4-trifluoromethylphenylimino)-3-methyl-4-[N-(4-ethylphenyl)carbamoylmethyl]-1,3-thiazol-4-ine hydrochloride]
- controlling effect on rice blast ([1]; 2 ppm): 79%
- controlling effect on rice blast ([1]; 10 ppm): 96%
- controlling effect on rice blast ([1]; 100 ppm): 99%
